This is an account of results in ChEMBL document CHEMBL1201862, “PubChem BioAssay data set” (2004).

Test systems include KM12; SNB-19; SNB-75; Malme-3M; MDA-MB-231; SF-295; MCF7; DU-145; HT-29; RXF 393; NCI-H460; BT-549; K562; IGROV-1; SK-MEL-2; A498; MDA-N; HCT-116; U-251; M14.
Holding throughout (assay): growth of human tumour cells (NCI), 48 h

Structures are written as SMILES.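 96-well plates; 48 h exposure; 5 concentrations. Endpoints by linear interpolation between flanking doses. Not reached: highest tested concentration assigned. At the GI50, growth is halved.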 Calls of active or inactive are those of the source. Rule as the data show it: active = GI50 up to about 1.1 µM and inactive = higher.

As to `CCN(CC)C1Oc2cc3c(cc2C(c2cc(OC)c(OC)c(OC)c2)C1C)OCO3` (stereo not given), the GI50 in the test on KM12 is 0.53 µM (active); in the test on SNB-19, 1.29 µM (inactive); in the test on SNB-75, 4.25 µM (inactive); in the test on Malme-3M, 0.748 µM (active); in the test on MDA-MB-231, 3.15 µM (inactive); in the test on SF-295, 0.441 µM (active). In addition, the GI50 in the test on MCF7 is 0.435 µM (active); with DU-145 it was 1.77 µM (inactive); in the test with HT-29, 0.603 µM (active); with RXF 393 it was 0.839 µM (active); in the test with NCI-H460 it was 0.944 µM (active); in the test with BT-549, 7.1 µM (inactive). Besides, the GI50 was 0.308 µM (active) in the test on K562; 1.52 µM (inactive) in the test on IGROV-1; 0.887 µM (active) in the test on SK-MEL-2; 1.59 µM (inactive) in the test on A498; 0.0836 µM (active) with MDA-N; 0.465 µM (active) with HCT-116. Besides, the GI50 in the test on U-251 is 0.6 µM (active); in the test on M14 it was 0.64 µM (active).

`COCCNC1CCC2(SCCS2)c2[nH]c3ccccc3c21` (stereo not given): the GI50 is 17.8 µM (inactive) with KM12; > 100 µM (inactive) in the test on SNB-19; 90.8 µM (inactive) in the test on SNB-75; > 10 µM (inactive) in the test on Malme-3M; 20.3 µM (inactive) with MDA-MB-231; 50.4 µM (inactive) in the test on SF-295. Moreover, the GI50 with MCF7 was 16.8 µM (inactive); with DU-145, 39.3 µM (inactive); in the test on HT-29, > 100 µM (inactive); in the test on RXF 393, 14 µM (inactive); with NCI-H460, 67.8 µM (inactive); in the test with BT-549, 20.6 µM (inactive). Besides, the GI50 with K562 was 32.2 µM (inactive); in the test on IGROV-1, > 100 µM (inactive); with SK-MEL-2, 44.8 µM (inactive); with A498, 25.5 µM (inactive); with MDA-N, 22.9 µM (inactive); in the test on HCT-116 it was 50.1 µM (inactive). The GI50 in the test with U-251 is 37.2 µM (inactive); with M14, 16 µM (inactive).

Turning to `COC(=O)C1CC(C=[N+](C)C)=C(SC)N1` (stereo not given), the GI50 in the test on KM12, with SNB-19, with SNB-75, with Malme-3M, in the test with MDA-MB-231 and in the test with SF-295 was > 100 µM (inactive) in each case. For the same compound, the GI50 was > 100 µM (inactive) in the test on MCF7; > 100 µM (inactive) in the test with DU-145; > 100 µM (inactive) with HT-29; > 100 µM (inactive) in the test with RXF 393; 98.2 µM (inactive) in the test with NCI-H460; > 100 µM (inactive) in the test on BT-549. The GI50 in the test with K562, in the test on IGROV-1, in the test with SK-MEL-2, in the test with A498, in the test with MDA-N and in the test on HCT-116 was > 100 µM (inactive) each time. The GI50 in the test with U-251 and in the test on M14 was > 100 µM (inactive) throughout.

With `C/C(=N/NC(=S)N1CCCCCC1)c1ccccc1O`, the GI50 in the test on KM12 was 3.67 µM (inactive); with SNB-19, 42.2 µM (inactive); in the test with SNB-75, 16.4 µM (inactive); in the test on Malme-3M it was 2.59 µM (inactive); in the test with MDA-MB-231 it was 29.9 µM (inactive); in the test with SF-295, 4.8 µM (inactive). The GI50 in the test with MCF7 was 3.31 µM (inactive); in the test on DU-145, 4.72 µM (inactive); in the test with HT-29 it was 7.73 µM (inactive); with RXF 393 it was 51.5 µM (inactive); with NCI-H460, 0.65 µM (active); with BT-549, 8.97 µM (inactive). Further, the GI50 in the test with K562 was 3.31 µM (inactive); in the test with IGROV-1, 3.72 µM (inactive); in the test on SK-MEL-2 it was 3.29 µM (inactive); in the test with A498, 23.8 µM (inactive); in the test on MDA-N, 13.6 µM (inactive); in the test with HCT-116, 3.11 µM (inactive). The values for the GI50 in the test on U-251 and in the test on M14 were 1.87 µM (inactive) and 1.49 µM (inactive), respectively.

As for `COc1ccc(Cc2nc3cc([N+](=O)[O-])ccc3n2C[C@@H]2CCCN3CCCCC23)cc1` (stereo not given in full), the GI50 was 16.3 µM (inactive) in the test with KM12; 19.8 µM (inactive) in the test with SNB-19; 40.7 µM (inactive) in the test with SNB-75; 16.7 µM (inactive) with Malme-3M; 19.3 µM (inactive) with MDA-MB-231; 18 µM (inactive) in the test on SF-295. For the same compound, the GI50 was 27.2 µM (inactive) in the test on MCF7; 37.9 µM (inactive) with DU-145; 17 µM (inactive) in the test with HT-29; 15.4 µM (inactive) in the test on RXF 393; 28.2 µM (inactive) in the test on NCI-H460; 19.7 µM (inactive) in the test with BT-549. The GI50 in the test with K562 was 19.8 µM (inactive); in the test on IGROV-1 it was 17.7 µM (inactive); with SK-MEL-2, 17.7 µM (inactive); in the test on A498, 16.6 µM (inactive); in the test on MDA-N, 17.7 µM (inactive); in the test with HCT-116, 14.7 µM (inactive). Moreover, the GI50 with U-251 was 20.9 µM (inactive); in the test on M14, 14.2 µM (inactive).

For the compound `C=C1C(=O)OC2CC1C(O)C/C(C)=C/CC/C(C)=C/C(O)CC2C` (stereo not given), the GI50 is 5.21 µM (inactive) in the test on KM12; 5.47 µM (inactive) in the test with SNB-19; 3.43 µM (inactive) in the test on SNB-75; 2.37 µM (inactive) in the test with Malme-3M; 3.52 µM (inactive) in the test with MDA-MB-231; 13.3 µM (inactive) in the test with SF-295. In addition, the GI50 in the test with MCF7 is 2.06 µM (inactive); with DU-145, 2.2 µM (inactive); with HT-29, 1.78 µM (inactive); with RXF 393 it was 1.01 µM (active); in the test on NCI-H460, 2.88 µM (inactive); with BT-549 it was 2.31 µM (inactive). The GI50 with K562 is 1 µM (active); in the test with IGROV-1 it was 2.75 µM (inactive); in the test with SK-MEL-2, 3.4 µM (inactive); with A498, 3.24 µM (inactive); in the test on MDA-N it was 1.19 µM (inactive); with HCT-116, 1.45 µM (inactive). Moreover, the figures for the GI50 in the test with U-251 and with M14 were 4.68 µM (inactive) and 2.51 µM (inactive), respectively.

Turning to `CCC1(C)C=Cc2c(cc(O)c3c(=O)c4ccccc4n(C)c23)O1` (stereo not given), the GI50 in the test on KM12, in the test on SNB-19, in the test on SNB-75, in the test on Malme-3M, in the test with MDA-MB-231 and with SF-295 was > 10 µM (inactive) in each case. Further, the GI50 in the test on MCF7, with DU-145, in the test with HT-29, in the test with RXF 393, in the test with NCI-H460 and with BT-549 was > 10 µM (inactive) each time. Moreover, the GI50 with K562, with IGROV-1, in the test on SK-MEL-2, with A498, with MDA-N and in the test on HCT-116 was > 10 µM (inactive) in each case. The GI50 in the test on U-251 and with M14 was > 10 µM (inactive) throughout.

As to `Cc1cccc(C)c1/N=N/c1ccc(O)c(CN(C)C)c1`, the GI50 in the test on KM12 was > 100 µM (inactive); in the test on SNB-19, > 100 µM (inactive); in the test on SNB-75, 75.3 µM (inactive); in the test on Malme-3M it was 20.5 µM (inactive); with MDA-MB-231, > 100 µM (inactive); in the test with SF-295, 71.6 µM (inactive). Besides, the GI50 in the test with MCF7 is 89.1 µM (inactive); in the test with DU-145, > 100 µM (inactive); with HT-29, 22.7 µM (inactive); in the test with RXF 393 it was 0.716 µM (active); in the test with NCI-H460, 26 µM (inactive); in the test on BT-549, 56.5 µM (inactive). Also, the GI50 is 28.6 µM (inactive) in the test on K562; 26.3 µM (inactive) in the test with IGROV-1; 25.2 µM (inactive) in the test with SK-MEL-2; 35.6 µM (inactive) in the test on A498; 50.8 µM (inactive) in the test with MDA-N; 68.7 µM (inactive) with HCT-116. For the same compound, the GI50 in the test on U-251 is > 100 µM (inactive); in the test with M14, 24.7 µM (inactive).
